In patent US11413278B2, “Compounds and methods for promoting stress resistance” (priority 2015, dated 2022):
pEC50: −log10 of the molar value. Like-named read-outs stand apart in the source and are kept apart here.

Experiments:
human PARP1 = target: T1, human PARP1 (Homo sapiens, UniProt P09874); assay: PARP inhibitor assay (HT Fluorescent Homogeneous PARP Inhibition Assay Kit); assay type: biochemical; details: for L = PARP inhibition: score
T1 construct: purchased Trevigen
Method in brief: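 Human PARP1 with NAD and activated DNA, compounds at 10 μM final, 30 min at room temperature in dark. Resazurin/diaphorase cycling mix then added for 1 hr in dark before stop buffer; fluorescent homogeneous kit read-out.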

[1] = Summary score for characterization of 38 core set hits; details: for D = Triple resistant: 2-point score, multiplex resistance (cadmium, MMS, H2O2); for C = H2O2- & Cd-resistant: score, resistance to both H2O2 and cadmium
Method in brief: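 Composite score across characterizations of hits from an H2O2-resistance screen. Multiplex resistance, FOXO3/NRF2 activation and mTOR down-regulation each earn 2 points. C. elegans lifespan extension over 4–6 trials scores 0–2, and DNA damage or toxicity in human cells subtracts a point.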

WI-38 cells [2] = details: for Assay 1: H2O2-resistant: YES/NO, if NO, possibly due to repeated freezing/thawing of stocks
WI-38 cells [3] = assay: Propidium iodide (PI) cell-death imaging upon H2O2 stress; assay type: cell-based, human; details: for Assay 7: H2O2-resistant, at 10 uM, validated by propidium iodide (PI) cell-death imaging: w/H2O2, 3 hrs/4 hrs/5 hrs, YES/NO; for cytotoxicity at 10 µM: Homo sapiens, WI-38
NRF2 = assay: in vitro; assay type: cell-based, human
LC3A/B puncta = assay: Autophagy induction analysis (LC3A/B puncta immuno-staining); assay type: cell-based, human; details: for Exp. 2, induction of LC3A/B puncta (Up), overlapped signals normalized by total number of nuclei in the fields / Exp. 2, normalized change of nuclei numbers (Less cells): 20X objective, lysosomal LAMP co-staining
Method in brief: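 WI-38 cells were treated with compounds for 24 hrs, then immunostained for LC3A/B (overnight, 4° C) with DAPI counterstain and imaged by high-content microscopy. Experiment 1 used total puncta intensity. Experiment 2 used LAMP2-colocalized (lysosomal) puncta. Intensity was normalized to nuclei count.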

[4] = WI-38 cells, 10 μM, (*) = compromised ability to protect cells from H2O2, could be due to stability issue
[5] = WI-38 cells, 10 uM, normalized ATP measurement
[6] = asterisks indicate the loss of the ability to protect cells from H2O2 over time
[7] = derived from dose response curves, 0.6-20 uM, H2O2-resistance of WI-38 cells
[8] = read-out: Est. ED50, dose response 0.6-20 μM, H2O2-resistance
[9] = H2O2 3 hrs, 10 uM, n = 6, negative control 5.44% ± 0.79%, read-out: Percentage of propidium iodide-positive dead cells (under H2O2 stress treatment), 3 hrs
[10] = H2O2 4 hrs, 10 uM, n = 6, negative control 16.81% ± 1.42%, read-out: Percentage of propidium iodide-positive dead cells (under H2O2 stress treatment), 4 hrs
[11] = pre-treatment at 10 uM, 3.5 hours of H2O2, DMSO control 27.4% ± 6.5%, */**/*** = reduced by one/two/three standard deviations, read-out: Percentage of propidium iodide-positive dead cells (under H2O2 stress treatment), at 10 uM
[12] = Exp. 1, 10 μM, 10X objective, WI-38 cells

T1 sequence (P09874 whole entry): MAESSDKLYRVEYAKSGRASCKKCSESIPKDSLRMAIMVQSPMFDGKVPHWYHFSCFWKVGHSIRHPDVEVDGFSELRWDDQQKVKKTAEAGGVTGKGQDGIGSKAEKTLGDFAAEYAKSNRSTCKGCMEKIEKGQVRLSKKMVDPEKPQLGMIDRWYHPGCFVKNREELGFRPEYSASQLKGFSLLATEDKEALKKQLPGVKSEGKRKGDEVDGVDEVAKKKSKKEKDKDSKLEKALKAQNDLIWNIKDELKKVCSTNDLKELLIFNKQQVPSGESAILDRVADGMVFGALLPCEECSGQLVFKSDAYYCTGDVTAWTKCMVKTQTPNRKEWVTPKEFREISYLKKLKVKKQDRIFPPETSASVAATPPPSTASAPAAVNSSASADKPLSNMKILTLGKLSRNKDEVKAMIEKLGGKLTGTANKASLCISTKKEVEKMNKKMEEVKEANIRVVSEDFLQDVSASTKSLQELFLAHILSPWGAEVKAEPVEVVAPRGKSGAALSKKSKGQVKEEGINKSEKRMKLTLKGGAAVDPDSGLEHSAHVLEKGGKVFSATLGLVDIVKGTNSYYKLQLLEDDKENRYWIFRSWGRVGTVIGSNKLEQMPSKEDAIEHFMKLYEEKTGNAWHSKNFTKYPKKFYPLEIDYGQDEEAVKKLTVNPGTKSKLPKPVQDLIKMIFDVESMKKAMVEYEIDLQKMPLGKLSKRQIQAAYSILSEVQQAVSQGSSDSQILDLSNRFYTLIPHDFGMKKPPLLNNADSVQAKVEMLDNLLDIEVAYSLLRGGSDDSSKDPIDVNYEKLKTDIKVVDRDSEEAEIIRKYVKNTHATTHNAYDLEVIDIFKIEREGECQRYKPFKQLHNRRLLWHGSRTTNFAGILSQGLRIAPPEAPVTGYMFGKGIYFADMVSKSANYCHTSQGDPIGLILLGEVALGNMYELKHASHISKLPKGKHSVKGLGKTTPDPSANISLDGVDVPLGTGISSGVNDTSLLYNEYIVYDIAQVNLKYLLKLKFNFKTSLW

O=C(Nc1nc(C23CC4CC(CC(C4)C2)C3)cs1)C(c1ccccc1)c1ccccc1 [O10]
L = PARP inhibition (human PARP1): 0 | D = Triple resistant [1]: 0 | S = Sum of Negative scores ([1]; human): 0 | C = H2O2- & Cd-resistant [1]: 1 | H2O2-resistant (WI-38 cells [2]; [4]): YES | No H2O2 stress treatment, at 10 uM (fold change) (WI-38 cells [2]; [5]): 1.08 fold change | Assay 1: H2O2-resistant (WI-38 cells [2]): YES | H2O2-resistant (WI-38 cells [2]; [6]): YES | pEC50 (WI-38 cells [2]; [7]): 5.02 | pEC50 (WI-38 cells [2]; [8]): 5.02 | Assay 7: H2O2-resistant, at 10 uM, validated by propidium iodide (PI) cell-death imaging (WI-38 cells [3]; 10 uM): YES | cytotoxicity at 10 µM (WI-38 cells [3]; [9]): 2.19% | cytotoxicity at 10 µM (WI-38 cells [3]; [10]): 4.27% | cytotoxicity at 10 µM (WI-38 cells [3]; [11]): 3.6% | J = NRF2-dependency for H2O2-resistance (NRF2; score): 0 | J = NRF2-dependency for H2O2-resistance (NRF2; summary score): 0 | H = Potential Autophagy Induction (LC3A/B puncta; score): 0 | H = Potential Autophagy Induction (LC3A/B puncta; summary score): 0

COc1cc2c(no[n+]2[O-])n2nnnc12 [O11]
L = PARP inhibition (human PARP1): 0 | D = Triple resistant [1]: 0 | C = H2O2- & Cd-resistant [1]: 1 | S = Sum of Negative scores ([1]; sum of columns Q and R): 1 | Screen 1: Screening, at 10 uM (viability assay by ATP measurement, normalized fold-change shown, >=2.5) (WI-38 cells [2]; 10 uM, 24 h, then 700 μM H2O2 3 h, normalized to DMSO): 3.42 fold-change | Screen 2: Dose response, at 10 uM (viability assay by ATP measurement, normalized fold-change shown, >=1.5) (WI-38 cells [2]; 10 uM, H2O2 stress): 6.71 fold-change | Screen 3: Dose response, at 20 uM (viability assay by ATP measurement, normalized fold-change shown) (WI-38 cells [2]; 20 uM, H2O2 stress): 3.00 fold-change | Exp. 1, under H2O2 stress treatment, at 10 uM (fold change) (WI-38 cells [2]; Exp. 1, WI-38 cells, 10 uM, normalized ATP measurement (Table 12)): 3.53 fold change | Exp. 2, under H2O2 stress treatment, at 10 uM (fold change) (WI-38 cells [2]; Exp. 2, WI-38 cells, 10 uM, normalized ATP measurement (Table 12)): 2.10 fold change | Experiment 1, WI-38 cells (under H2O2 stress treatment), at 10 uM (fold change) (WI-38 cells [2]; Experiment 1, WI-38 cells, 10 uM (run along with HDF cells)): 2.52 fold change | Experiment 2, WI-38 cells (under H2O2 stress treatment), at 10 uM (fold change) (WI-38 cells [2]; Experiment 2, WI-38 cells, 10 uM (run along with HDF cells)): 28.12 fold change | Dose response retest, at 10 uM (fold change) (WI-38 cells [2]; H2O2-resistance of WI-38 cells, cherry-picked retest, 10 uM): 6.71 fold change | Dose response retest, at 20 uM (fold change) (WI-38 cells [2]; H2O2-resistance of WI-38 cells, cherry-picked retest, 20 uM): 3.00 fold change | Library Screening, at 10 uM (fold change) (WI-38 cells [2]; H2O2-resistance of WI-38 cells, library screening, 10 uM): 3.42 fold change | H2O2-resistant (WI-38 cells [2]; [4]): YES | H2O2 stress treatment (3 hrs), at 10 uM (fold change) (WI-38 cells [2]; WI-38 cells, H2O2 3 hrs, 10 uM, normalized ATP measurement): 7.18 fold change | No H2O2 stress treatment, at 10 uM (fold change) (WI-38 cells [2]; [5]): 0.75 fold change | Assay 1: H2O2-resistant (WI-38 cells [2]): YES | H2O2-resistant (WI-38 cells [2]; [6]): YES | pEC50 (WI-38 cells [2]; [7]): 5.36 | pEC50 (WI-38 cells [2]; [8]): 5.36 | Assay 7: H2O2-resistant, at 10 uM, validated by propidium iodide (PI) cell-death imaging (WI-38 cells [3]; 10 uM): YES | Percentage of propidium iodide-positive dead cells (under H2O2 stress treatment), 3 hrs (WI-38 cells [3]; H2O2 3 hrs, 10 uM, n = 6, negative control 5.44% ± 0.79%): 2.19% ± 0.35%, | Percentage of propidium iodide-positive dead cells (under H2O2 stress treatment), 4 hrs (WI-38 cells [3]; H2O2 4 hrs, 10 uM, n = 6, negative control 16.81% ± 1.42%): 2.80% ± 0.49%, | Percentage of propidium iodide-positive dead cells (under H2O2 stress treatment), 5 hrs (WI-38 cells [3]; H2O2 5 hrs, 10 uM, n = 6, negative control 22.50% ± 1.53%): 2.90% ± 0.70%, | Percentage of propidium iodide-positive dead cells (under H2O2 stress treatment), at 10 uM (WI-38 cells [3]; pre-treatment at 10 uM, 3.5 hours of H2O2, DMSO control 27.4% ± 6.5%, */**/*** = reduced by one/two/three standard deviations): 26.5% | J = NRF2-dependency for H2O2-resistance (NRF2; score): 0 | J = NRF2-dependency for H2O2-resistance (NRF2; summary score): 0 | Assay 15: Potential autophagy induction by LC3A/B puncta assays (LC3A/B puncta; 10 uM & 20 uM, YES/NO): YES | Exp. 1, induction of LC3A/B puncta (Up), total intensity normalized by total number of nuclei in the fields (LC3A/B puncta; [12]): p < 0.01; Up, 315%, | Exp. 1, normalized change of nuclei numbers (Less cells) (LC3A/B puncta; [12]): Less cells, 64%, | Exp. 2, induction of LC3A/B puncta (Up), overlapped signals normalized by total number of nuclei in the fields (LC3A/B puncta; Exp. 2, 10 μM, WI-38 cells): p < 0.001; Up, 193%, | Exp. 2, normalized change of nuclei numbers (Less cells) (LC3A/B puncta; Exp. 2, 10 μM, WI-38 cells): Less cells, 71%, | Exp. 2, induction of LC3A/B puncta (Up), overlapped signals normalized by total number of nuclei in the fields (LC3A/B puncta; Exp. 2, 20 μM, WI-38 cells): p < 0.001; Up, 159%, | Exp. 2, normalized change of nuclei numbers (Less cells) (LC3A/B puncta; Exp. 2, 20 μM, WI-38 cells): Less cells, 69%, | H = Potential Autophagy Induction (LC3A/B puncta; score): 1 | H = Potential Autophagy Induction (LC3A/B puncta; summary score): 1

CCCC(=O)Nc1ccc(-c2cn3cccc(C)c3n2)cc1 [O12]
Inhibition of PARP1 (human PARP1; 10 μM, in vitro): inhibitors of PARP1 | L = PARP inhibition (human PARP1): 0 | D = Triple resistant [1]: 0 | S = Sum of Negative scores ([1]; human): 0 | C = H2O2- & Cd-resistant [1]: 1 | H2O2-resistant (WI-38 cells [2]; [4]): YES | No H2O2 stress treatment, at 10 uM (fold change) (WI-38 cells [2]; [5]): 1.01 fold change | H2O2-resistant (WI-38 cells [2]; [6]): YES | pEC50 (WI-38 cells [2]; [7]): 6.00 | pEC50 (WI-38 cells [2]; [8]): 6.00 | Assay 7: H2O2-resistant, at 10 uM, validated by propidium iodide (PI) cell-death imaging (WI-38 cells [3]; 10 uM): YES | cytotoxicity at 10 µM (WI-38 cells [3]; [9]): 0.74% | cytotoxicity at 10 µM (WI-38 cells [3]; [10]): 0.77% | cytotoxicity at 10 µM (WI-38 cells [3]; H2O2 5 hrs, 10 uM, n = 6, negative control 22.50% ± 1.53%, read-out: Percentage of propidium iodide-positive dead cells (under H2O2 stress treatment), 5 hrs): 1.33% | cytotoxicity at 10 µM (WI-38 cells [3]; [11]): 0.4% | J = NRF2-dependency for H2O2-resistance (NRF2; score): 0 | J = NRF2-dependency for H2O2-resistance (NRF2; summary score): 0 | H = Potential Autophagy Induction (LC3A/B puncta; score): 0 | H = Potential Autophagy Induction (LC3A/B puncta; summary score): 0
